The text below walks through data of patent publication US5602156A, “Method for inhibiting metalloproteinase expression” (The United States of America as represented by the …, priority 1994, dated 1997).

Entries after “also recorded” stand apart in the source; their conditions may differ.

The subject of experiment [1] is MMP-2. The experiment can be described thus: Gelatin zymography of conditioned media from human cancer cell lines (gelatinase activity). Conditions: for reduction of activated MMP-2: 20 μM compound 1. The class given is cell-based. As to the method:
(§1) Conditioned media for zymogram and Western blot analysis were produced under serum-free conditions. Cells (2 million) were plated in 25 cm^2 flasks in serum-containing medium and cultured overnight. Serum-containingmedium was removed and the cell monolayers were washed twice with DMEM/ITS (DMEM containing insulin (5 μg/mL), transferrin (5 μg/mL), and selenium (5 ng/mL)). The resultant cells were fed with 3 mL of DMEM/ITS and additives as described in the Examples for two 24 hour periods. Conditioned media samples were collected at 24 hours and cells were refed with fresh DMEM/ITS containing the described additives for an additional 24 hours. Conditioned media samples were centrifuged to remove cells and debris then frozen at -20° C. until use. Freeze and thaw cycles of the conditioned media were limited to no more than two.
Quantitation of the effect was evaluated by laser densitometry of the resultant zymograms.
Aliquots of conditioned medium (15 μL) were electrophoresed on gelatin-containing 10% PAGE gels under nonreducing but denaturing conditions. These conditions allow the different gelatin-degrading species (MMPs) to separate by size. […] Bands of clearing, seen after Coomassie blue staining correspond to areas of gelatinase activity.
OVCAR3 conditioned media samples were concentrated 10-fold prior to zymography.
Known concentrated conditioned medium from HT1080 cells was used for identification of the gelatinase species as marked in FIG. 1A: 92 kDa, gelatinase B/MMP-9; 72 kDa, gelatinase A/MMP-2 latent form; 65 kDa intermediate and 62 kDa activated forms of MMP-2. The activated form of MMP-2 results from cleavage of the amino terminal domain.
Lane 1 corresponds to cells treated only with 0.05% DMSO as a control.
Quantitation of the zymograms in FIGS. 1A-1C were carded out using laser densitometry.
The effect of structural analogs on the gelatinase activity of A2058 cells was similarly evaluated.

The test system of a further experiment is arachidonic acid release. Conditions: cited from earlier work.
Experiment [2] relates to gelatinase activity of the metalloproteinases. The experiment can be described thus: Zymogram slices incubated with compound 1 or calcium chelators in the activating buffer (direct inhibition of enzyme). It counts as biochemical, human. As to the method:
See, Felder, et al., J. Pharm. Exp. Therapeut. 257:967-971 (1991) and unpublished observations by the inventors.
Gelatin zymography was carded out using control conditioned media from A2058 cells and HT1080 cells in the absence of compound 1. Zymogram slices were incubated in low salt collagenase buffer with control (DMSO 0.1%), an inhibitory dose of compound 1 (20 μM), or the calcium chelators EGTA (10 mM) and EDTA (10 mM). […] See, Brown, et al., Cancer Res. 50:6184-6191 (1990). […] Lane 1 for each of the zymograms corresponds to A2058 while lane 2 corresponds to HT1080.

In experiment [3] the test system is MMP-2. The experiment can be described thus: Gelatin zymography of HT1080 cells, compound 1 with or without TGF-β1 (densitometry). Conditions: control band = 100%. The class given is cell-based, human. The protocol: as §1
A2058 human melanoma cells, human HT1080 fibrosarcoma cells, and OVCAR3 human ovarian cancer cells were incubated with increasing concentrations of compound 1 (0.2-20 μM) or DMSO control (0.05%) and subjected to gelatin zymography. Aliquots of conditioned medium (15 μL) were electrophoresed on gelatin-containing 10% PAGE gels under nonreducing but denaturing conditions. These conditions allow the different gelatin-degrading species (MMPs) to separate by size. The enzymes renature after removal of the SDS by incubation of the gel with 2.5 % Triton X-100, and degrade the gelatin substrate present in the polyacrylamide gel upon overnight incubation in low salt collagenase buffer. Bands of clearing, seen after Coomassie blue staining correspond to areas of gelatinase activity.
A2058 and HT1080 cells were incubated with compound 1 (2 μM), with or without TGF-β1 (5 ng/mL) for 24 and 48 hours prior to harvest of conditioned media. Aliquots were subjected to gelatin zymography as described in Example 1. Known concentrated conditioned medium from HT1080 cells was used for identification of the gelatinase species (92 kDa, gelatinase B/MMP-9; 72 kDa, gelatinase A/MMP-2 latent form; 65 kDa intermediate and 62 kDa activated forms of MMP-2).
Lane 1 is the control resulting from treatment of the cells with 0.1% DMSO. Lanes 2 and 3 correspond to those cells which are treated with 2 μM compound 1 in the absence of TGF-β1 for 24 and 48 hours, respectively. Lane 4 corresponds to cells which have been treated with TGF-β1 in the absence of compound 1. Lane 5 corresponds to cells which have been treated with TGF-β1 for 48 hours with compound 1 being added to the incubation mixture for the final 24 hours. Lane 6 corresponds to cells which have been treated for 48 hours with both TGF-β1 and compound 1.
*The control band was defined as 100% gelatinase activity and the other
bands were normalized to it. Numbers reflect triplicate measurements from
each zymogram band of representative zymograms. Standard deviations, not

In experiment [4] the test system is MMP-2. The experiment in a line: Western immunoblot of MMP-2 species in conditioned media. The class given is cell-based, human. As to the method: as §1
This example illustrates the dose-dependent effects of compound 1 on the presence of MMP-2 and its activated species. Western immunoblots were used to detect the effect of compound 1 on the presence of MMP-2 and its activated species and for crude quantitation of MMP-2 presence.
A2058 and HT1080 conditioned media samples were concentrated 10-fold using ultrafiltration units excluding material of less than 10 or 30 kDa in molecular weight. Aliquots of 15 μL were electrophoresed on 4-20% gradient PAGE gels, electrically transferred to membranes and immunoblotted with specific polyclonal antibody to proMMP-2. This antibody, made to the MMP-2/TIMP-2 complex recognizes the latent and activated MMP-2 species and crossreacts with TIMP-2 (21 kDa).

The subject of a further experiment is phospholipase C-γ. Conditions: cited from earlier work.
Where [5] appears, read: with TGF-β, 2 μM compound 1, 24 hr.
Where [6] appears, read: with TGF-β, 2 μM compound 1, 48 hr.
[7] abbreviates: without TGF-β, 2 μM compound 1, 24 hr.
The mark [8] stands for this setting: without TGF-β, 2 μM compound 1, 48 hr.

On to `NC(=O)c1nnn(Cc2cc(Cl)c(C(=O)c3ccc(Cl)cc3)c(Cl)c2)c1N` [Compound 1, 5-amino-l-(4-(4-chlorobenzoyl)-3,5-dichlorobenzyl)-1,2,3-triazole-4-carboxamide], for which the MMP-2 activity result with MMP-2 [1] (A2058, 10 μM (FIG. 1E)) was “reduced MMP-2 activity”. Besides, the “reduction of activated MMP-2” value with MMP-2 [1] (A2058) was “almost complete reduction”; in the experiment with MMP-2 [1] (HT1080), 75%; in the experiment with MMP-2 [1] (OVCAR3) it was “almost complete reduction”. Besides, in the experiment with MMP-2 [1] (HT1080 cell line), the “shift of MMP species” value is “shift to activated species with subsequent decrease in total activity”. The “reduction in activity of all MMP-2 species” value with MMP-2 [1] (all cell lines (HT1080, A2058, OVCAR3), normalized to DMSO control) is recorded as “greater than 80%”. Also, in the experiment on MMP-2 [1] (three human cancer cell lines, 0.2-20 μM), the “reduction of MMP activity” value is “dose dependent reduction of MMP activity”. Moreover, the “inhibition of MMP-2 gelatinase activity (FIG. 1)” value with MMP-2 [1] (zymograms of FIG. 1) is recorded as “dose-dependent inhibition”. For the same compound, the arachidonic acid release entry in the experiment with arachidonic acid release was “inhibits”. Besides, the “mechanism not due to calcium chelation” value in experiment [2] is “not due to calcium chelation”. Further, the “gelatinase activity of enzymes in isolation” value in experiment [2] (compound 1 in zymogram incubation buffer, 20 μM, A2058 and HT1080 media) is “lack of reduction of gelatinolytic activity in conditioned medium; also recorded: does not inhibit gelatinase activity of the metalloproteinases; also recorded: did not effect its activity in isolation”. Besides, the “gelatinase activity, 65 + 62 kDa” value is on record as 194% in the experiment on MMP-2 [3] (setting [5]), 116% with MMP-2 [3] (setting [6]), 125% with MMP-2 [3] (setting [7]) and 24% in the experiment with MMP-2 [3] (setting [8]). Also, the “gelatinase activity, 72 kDa” value is recorded as 52% with MMP-2 [3] (setting [5]), 10% with MMP-2 [3] (setting [6]), 10% with MMP-2 [3] (setting [7]) and 0.6% in the experiment with MMP-2 [3] (setting [8]). The “presence of the MMP-2 species” value with MMP-2 [4] (A2058 and HT1080, FIG. 4) is reported as “dose-dependent reduction of the presence of the MMP-2 species”; in the experiment on MMP-2 [4] (A2058 and HT1080, FIG. 4, listed as compound 1), “dose-dependent”; with MMP-2 [4] (after incubation with 20 μM compound 1) it was “more complete reduction of all species”. The “shift of MMP-2 species” value in the experiment with MMP-2 [4] (before more complete reduction of all species) is “shift to the lower molecular weight activated species”. Besides, the “tyrosine phosphorylation with activation of phospholipase C-γ” value in the experiment on phospholipase C-γ is on record as “inhibits”.
